Measured values from patent publication US20070135383A1, “Phospholipase inhibitors, including multi-valent phospholipase inhibitors, and use thereof, including as lumen-localized phospholipase inhibitors” (priority 2005, published 2007).
Read-outs that look alike come from different tables or passages of the source.

Key:
Assay in all cases: Fluorimetric PPyrPM assay for group 1B PLA2 inhibition (Example 12)
Format in all cases: biochemical
[1] = molecular target: T1, mouse group 1B PLA2 (mps PLA2) (Mus musculus, UniProt Q9Z0Y2); conditions: for inhibition at 15 µM: read-out: ILYPSA % inhibition at 15 μM mps PLA2
T1 construct: made in house; host or cells: E. coli
Excerpt: (§1) In this example, a fluorimetric assay procedure was used to evaluate the indole and indole-related compounds of the invention as inhibitors of group 1B phospholipase A2 (PLA2) from human, mouse and porcine. A description of this assay is found in articles: Leslie, C C and Gelb, M H (2004) Methods in Molecular Biology “Assaying phospholipase A2 activity”, 284:229-242; Singer, A G, et al. (2002) Journal of Biological Chemistry “Interfacial kinetic and binding properties of the complete set of human and mouse groups I, II, V, X, and XII secreted phospholipases A2”, 277:48535-48549, which are incorporated herein as references.
(§2) In general, this assay used a phosphatidylmethanol substrate with a pyrene fluorophore on the terminal end of the sn-2 fatty acyl chain. Without being bound by theory, close proximity of the pyrenes from neighboring phospholipids in a phospholipid vesicle caused the spectral properties to change relative to that of monomeric pyrene. Bovine serum albumin was present in the aqueous phase and captured the pyrene fatty acid when it is liberated from the glycerol backbone owing to the PLA2-catalyzed reaction. However, a potent inhibitor can inhibit the liberation of pyrene fatty acid from the glycerol backbone. […] The effect of a given inhibitor and inhibitor concentration on human, mouse and porcine phospholipase was determined.
(§3) Recombinant human and mouse group 1B PLA2 were cloned and expressed in E. coli as insoluble inclusion bodies. The inclusion bodies were isolated and purified by sonicating cell pellet in lysis buffer (50 mM Tris-HCl pH 7.0, 250 mM NaCl, 0.5% Triton 100), centrifugation at 12,000×g, and washing three times in washing buffer (20 mM Tris-HCl pH 7.0, 250 mM NaCl, 0.5% Triton 100). Then the inclusion bodies were dissolved in dissolving buffer (50 mM Tris-HCl pH 7.0, 250 mM NaCl, 6 M Guanidine-HCl, 1 mM DTT) and dialyzed four times against 10 volumes of refolding buffer (20 mM Tris-HCl pH 7.0, 250 mM NaCl, 0.5M Guanidine-HCl, 5% (w/w) Glycerol, 2 mM reduced glutathione and 0.4 mM oxidized glutathione) at 4° C. The correctly refolded proteins were concentrated using Amicon Stirred cell under nitrogen pressure (<70 psi) and dialyzed against 10 volumes of 50 mM Tris-HCl pH 7.0, 250 mM NaCl and 5% (w/w) glycerol. Human and mouse group 1B PLA2 were further purified by High S ion exchange and gel filtration columns.
(§4) The following reagents and equipments were obtained from commercial vendors: • 1. Porcine group 1B phospholipase A2 • 2. 1-hexadecanoyl-2-(1-pyrenedecanoyl)-sn-glycero-3-phosphomethanol (PPyrPM) • 3. Bovine serum albumin (BSA, fatty acid free) • 4. 2-Amino-2-(hydroxymethyl)-1,3-propanediol, hydrochloride (Tris-HCl) • 5. Calcium chloride • 6. Potassium chloride • 7. Solvents: DMSO, toluene, isopropanol, ethanol • 8. Molecular Devices SPECTRAmax microplate spectrofluorometer • 9. Costar 96 well black wall/clear bottom plate
(§5) The following reagents were prepared: • 10. PPyrPM stock solution (1 mg/ml) in toluene:isopropanol (1:1) • 11. ILY104 inhibitor stock solution (10 mM) in DMSO • 12. 3% (w/v) bovine serum albumin (BSA) • 13. Stock buffer: 50 mM Tris-HCl, pH 8.0, 50 mM KCl and 1 mM CaCl2
(§6) The following procedure was performed to evaluate the inhibitory potency of the evaluated compounds. • 14. An assay buffer was prepared by adding 3 ml 3% BSA to 47 ml stock buffer. • 15. Solution A was prepared by adding serially diluted inhibitors to the assay buffer. Inhibitors were three-fold diluted in stock buffer in a series of 8 from 15 uM. • 16. Solution B was prepared by adding human, mouse or porcine PLA2 to the assay buffer. This solution was prepared immediately before use to minimize enzyme activity loss. • 17. Solution C was prepared by adding 30 ul PPyrPM stock solution to 90 ul ethanol, and then all 120 ul of PPyrPM solution was transferred drop-wise over approximately 1 min to the continuously stirring 8.82 ml assay buffer to form a final concentration of 4.2 uM PPyrPM vesicle solution. • 18. […]

[2] = molecular target: T2, human group 1B PLA2 (hps PLA2) (Homo sapiens, UniProt P04054); conditions: for inhibition at 15 µM: read-out: ILYPSA % inhibition at 15 μM hps PLA2
T2 construct: made in house; host or cells: E. coli
Excerpt: as §1, §2, §3, §4, §5, §6

[3] = molecular target: T3, porcine group 1B PLA2 (pps PLA2) (Sus scrofa, UniProt P00592); conditions: porcine pancreas secreted PLA2; for IC50: read-out: ILYPSA IC50 pps PLA2
T3 construct: purchased
Excerpt: as §1, §2, §4, §5
The following procedure was performed to evaluate the inhibitory potency of the evaluated compounds. • 14. An assay buffer was prepared by adding 3 ml 3% BSA to 47 ml stock buffer. • 15. Solution A was prepared by adding serially diluted inhibitors to the assay buffer. Inhibitors were three-fold diluted in stock buffer in a series of 8 from 15 uM. • 16. Solution B was prepared by adding human, mouse or porcine PLA2 to the assay buffer. This solution was prepared immediately before use to minimize enzyme activity loss. • 17. Solution C was prepared by adding 30 ul PPyrPM stock solution to 90 ul ethanol, and then all 120 ul of PPyrPM solution was transferred drop-wise over approximately 1 min to the continuously stirring 8.82 ml assay buffer to form a final concentration of 4.2 uM PPyrPM vesicle solution. • 18. The SPECTRAmax microplate spectrofluorometer was set at 37° C. • 19. 100 ul of solution A was added to each inhibition assay well of a costar 96 well black wall/clear bottom plate • 20. 100 ul of solution B was added to each inhibition assay well of a costar 96 well black wall/clear bottom plate. • 21. 100 ul of solution C was added to each inhibition assay well of a costar 96 well black wall/clear bottom plate. • 22. The plate was incubated inside the spectrofluorometer chamber for 3 min. • 23. The fluorescence was read using an excitation of 342 nm and an emission of 395 nm.
Evaluated compounds were tested in duplicate and their values were averaged to plot the inhibition curve and calculate the IC50. Compared to uninhibited controls, lower fluorescent signal at an emission of 395 nm in test reactions evidenced inhibition of PLA2. […] Compounds initially found to be active were repeated to confirm their inhibitory activity. […]

[4] = mouse pancreas secreted PLA2, read-out: ILYPSA IC50 mps PLA2
[5] = human pancreas secreted PLA2, read-out: ILYPSA IC50 hps PLA2

T3 sequence (P00592 23-146): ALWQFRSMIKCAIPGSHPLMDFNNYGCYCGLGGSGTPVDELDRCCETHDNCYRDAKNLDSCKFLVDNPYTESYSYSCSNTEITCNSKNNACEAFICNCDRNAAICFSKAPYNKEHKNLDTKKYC
T2 sequence (P04054 23-148): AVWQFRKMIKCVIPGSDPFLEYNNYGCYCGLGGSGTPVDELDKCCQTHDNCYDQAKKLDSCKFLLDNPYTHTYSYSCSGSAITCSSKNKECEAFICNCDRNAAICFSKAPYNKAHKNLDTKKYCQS
T1 sequence (Q9Z0Y2 23-146): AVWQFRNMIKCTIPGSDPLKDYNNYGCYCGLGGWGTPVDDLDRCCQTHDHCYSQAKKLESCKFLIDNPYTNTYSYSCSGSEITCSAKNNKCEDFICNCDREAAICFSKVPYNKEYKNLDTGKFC

Compound | IC50 [1, 4] [nM] | IC50 [2, 5] [nM] | IC50 [3] [nM] | IC50 [2] [nM] | IC50 [1] [nM] | inhibition at 15 µM ([1]; mouse pancreas secreted PLA2) [%] | inhibition at 15 µM ([2]; human pancreas secreted PLA2) [%] | inhibition at 15 µM ([3]; read-out: ILYPSA % inhibition at 15 μM pps PLA2, 15 μM) [%]
Cc1c(C(=O)C(N)=O)c2c(OCC(=O)O)cccc2n1CCCCCCCCCCCCNCCCCCCCCCCCCn1c(C)c(C(=O)C(N)=O)c2c(OCC(=O)O)cccc21 [ILY-V-45, (3-Aminooxalyl-1-{12-[12-(3-aminooxalyl-4-carboxymethoxy-2-methyl-indol-1-yl)-dodecylamino]-dodecyl}-2-methyl-1H-indol-4-yloxy)-acetic acid] | 70 | 120 | 40 |  |  |  |  | 
CCC(Oc1cccc2c1c(C(=O)C(N)=O)c(C)n2Cc1ccccc1)C(=O)O (centres unmarked) [ILY-IV-20, 2-(3-Aminooxalyl-1-benzyl-2-methyl-1H-indol-4-yloxy)-butyric acid] | < 20 |  | < 20 | 180 |  |  |  | 
CCc1c(C(=O)C(N)=O)c2c(OCC(=O)O)nccc2n1Cc1ccccc1 [ILY-II-9, 2-(3-(2-amino-2-oxoacetyl)-1-benzyl-2-ethyl-1H-pyrrolo[3,2-c]pyridin-4-yloxy)acetic acid] | 350 | 1460 | 30 |  |  |  |  | 
Cc1c(C(=O)C(N)=O)c2c(OC(F)C(N)=O)cccc2n1Cc1ccccc1 (centres unmarked) [ILY-IV-28, 2-(3-Aminooxalyl-1-benzyl-2-methyl-1H-indol-4-yloxy)-2-fluoro-acetamide] | 1440 | 2600 | 160 |  |  |  |  | 
CCC(Oc1nccc2c1c(C(=O)C(N)=O)c(C)n2Cc1ccccc1)C(=O)O (centres unmarked) [ILY-II-11, 2-(3-Aminooxalyl-1-benzyl-2-methyl-1H-pyrrolo[3,2-c]pyridin-4-yloxy)-butyric acid] |  |  | < 20 | 480 | 30 |  |  | 
Cc1c(C(=O)C(N)=O)c2c(OCC(=O)O)cccc2n1CCCCCCCCCCCCSSCCCCCCCCCCCCn1c(C)c(C(=O)C(N)=O)c2c(OCC(=O)O)cccc21 [ILY-V-28, 2,2′-(1,1′-(12,12′-disulfanediylbis(dodecane-12,1-diyl))bis(3-(2-amino-2-oxoacetyl)-2-methyl-1H-indole-4,1-diyl))bis(oxy)diacetic acid] | 1000 | 600 | 730 |  |  |  |  | 
Cc1ccc(S(=O)(=O)NC(=O)COc2cccc3c2c(C(=O)C(N)=O)c(C)n3Cc2ccccc2)cc1 [ILY-IV-26, 1-Benzyl-2-methyl-4-p-toluenesulfonamidoylmethyloxy-1H-indol-3-glyoxylamide] | 3090 | > 5000 | 80 |  |  |  |  | 
Cc1c(C(=O)C(N)=O)c2c(OCC(=O)O)ccc([N+](=O)[O-])c2n1Cc1ccccc1 [ILY-IV-29] | 330 | 1290 | 20 |  |  |  |  | 
Cc1c(CC(N)=O)c2c(OCC(=O)O)cccc2n1Cc1ccccc1 [ILY-III-22, (1-Benzyl-3-carbamoylmethyl-2-methyl-1H-indol-4-yloxy)-acetic acid] | 890 | 1320 |  |  |  |  |  | 
Cc1c(C(=O)C(N)=O)c2c(OC(F)C(=O)O)cccc2n1Cc1ccccc1 (centres unmarked) [ILY-IV-24, (3-Aminooxalyl-1-benzyl-2-methyl-1H-indol-4-yloxy)-fluoro-acetic acid] |  |  | 1420 |  |  | 63.7 | 52.4 | 
Cc1c(C(=O)C(N)=O)c2c(OCC(=O)O)cccc2n1CCCCCCCCCCCCOc1ccc(-c2ccc(OCCCCCCCCCCCCn3c(C)c(C(=O)C(N)=O)c4c(OCC(=O)O)cccc43)cc2)cc1 [ILY-V-36, [3-Aminooxalyl-1-(12-{4′-[12-(3-aminooxalyl-4-carboxymethoxy-2-methyl-indol-1-yl)-dodecyloxy]-biphenyl-4-yloxy}-dodecyl)-2-methyl-1H-indol-4-yloxy]-acetic acid] | 920 | 1250 | 440 |  |  |  |  | 
Cc1c(C(=O)C(N)=O)c2c(O)cccc2n1CCCCCCCCCCCCSCCCCCCCCCCCCn1c(C)c(C(=O)C(N)=O)c2c(O)cccc21 [ILY-V-35] | 3650 | 1520 | 2090 |  |  |  |  | 
Cc1c(C(=O)C(N)=O)c2c(OCC(=O)NC(CC(=O)O)C(=O)O)nccc2n1Cc1ccccc1 (centres unmarked) [ILY-II-12, 2-(2-(3-(2-amino-2-oxoacetyl)-1-benzyl-2-methyl-1H-pyrrolo[3,2-c]pyridin-4-yloxy)acetamido)succinic acid] |  |  | 3710 |  |  | 35.7 | 16.6 | 
Cc1c(C(=O)C(N)=O)c2c(OCC(=O)O)cccc2n1Cc1ccc(-c2ccccc2)cc1 [ILY-V-3] | 770 | 1260 | 210 |  |  |  |  | 
Cc1c(C(=O)C(N)=O)c2c(OCC(=O)O)ccc(Br)c2n1Cc1ccccc1 [ILY-IV-9, (3-Aminooxalyl-1-benzyl-7-bromo-2-methyl-1H-indol-4-yloxy)-acetic acid] | 360 | 540 | 40 |  |  |  |  | 
Cc1c(C(=O)C(N)=O)c2c(OC(C(=O)O)c3ccccc3)cccc2n1Cc1ccccc1 (centres unmarked) [ILY-IV-32, (3-Aminooxalyl-1-benzyl-2-methyl-1H-indol-4-yloxy)-phenyl-acetic acid] |  |  |  |  |  | 47.5 | 41.7 | 38.5
Cc1c(C(=O)C(N)=O)c2c(OC(C(=O)O)C(C)C)cccc2n1CCCCCCCCCCCCn1c(C)c(C(=O)C(N)=O)c2c(OC(C(=O)O)C(C)C)cccc21 (centres unmarked) [ILY-V-44, 2-(3-Aminooxalyl-1-{12-[3-aminooxalyl-4-(1-carboxy-2-methyl-propoxy)-2-methyl-indol-1-yl]-dodecyl}-2-methyl-1H-indol-4-yloxy)-3-methyl-butyric acid] | 480 | 280 | 50 |  |  |  |  | 
Cc1c(C(=O)C(N)=O)c2c(OC(C(=O)O)C(C)C)cccc2n1Cc1ccccc1 (centres unmarked) [ILY-IV-22, 2-(3-Aminooxalyl-1-benzyl-2-methyl-1H-indol-4-yloxy)-3-methyl-butyric acid] | < 20 | 70 | < 20 |  |  |  |  | 
